Measured values taken from US20260158017A1, “KIF18A INHIBITOR” (WIGEN BIOMEDICINE TECHNOLOGY (SHANGHAI) CO., LTD., priority 2021, published 2026).

Target: T1, Recombinant human KIF18A (1-467His-tagged) protein (Homo sapiens, UniProt Q8NI77)
T1 construct: Recombinant human KIF18A (1-467His-tagged) protein; His; made in house
Assay: KIF18A enzyme assay (microtubule-stimulated ATPase activity, ADP-Glo)
Assay type: biochemical
Details: 30 nM KIF18A, 75 μM ATP, 30 μg/mL pig microtubules; read-out: Inhibitory activity against KIF18A IC50
How it was run: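 Buffer 15 mM Tris pH 7.5, 10 mM MgCl2, 0.01% Pluronic F-68, 1 μM paclitaxel, 30 μg/mL pig microtubules; reactions at room temperature. IC50 from inhibition relative to DMSO.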

T1 sequence (Q8NI77 1-467): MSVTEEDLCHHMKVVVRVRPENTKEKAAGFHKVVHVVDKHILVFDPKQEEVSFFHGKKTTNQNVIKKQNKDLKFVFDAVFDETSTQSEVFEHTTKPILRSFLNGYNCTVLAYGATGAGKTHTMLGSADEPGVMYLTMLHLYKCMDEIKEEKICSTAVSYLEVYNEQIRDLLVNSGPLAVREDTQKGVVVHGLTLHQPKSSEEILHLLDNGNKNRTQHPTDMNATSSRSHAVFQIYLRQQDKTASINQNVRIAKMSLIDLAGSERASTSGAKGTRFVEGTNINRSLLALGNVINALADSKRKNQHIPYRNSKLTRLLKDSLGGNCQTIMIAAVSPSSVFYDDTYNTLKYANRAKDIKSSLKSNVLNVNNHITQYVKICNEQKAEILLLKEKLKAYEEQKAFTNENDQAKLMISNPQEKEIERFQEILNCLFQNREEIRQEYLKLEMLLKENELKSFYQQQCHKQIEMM
T1 sequence (P02550 whole entry partner): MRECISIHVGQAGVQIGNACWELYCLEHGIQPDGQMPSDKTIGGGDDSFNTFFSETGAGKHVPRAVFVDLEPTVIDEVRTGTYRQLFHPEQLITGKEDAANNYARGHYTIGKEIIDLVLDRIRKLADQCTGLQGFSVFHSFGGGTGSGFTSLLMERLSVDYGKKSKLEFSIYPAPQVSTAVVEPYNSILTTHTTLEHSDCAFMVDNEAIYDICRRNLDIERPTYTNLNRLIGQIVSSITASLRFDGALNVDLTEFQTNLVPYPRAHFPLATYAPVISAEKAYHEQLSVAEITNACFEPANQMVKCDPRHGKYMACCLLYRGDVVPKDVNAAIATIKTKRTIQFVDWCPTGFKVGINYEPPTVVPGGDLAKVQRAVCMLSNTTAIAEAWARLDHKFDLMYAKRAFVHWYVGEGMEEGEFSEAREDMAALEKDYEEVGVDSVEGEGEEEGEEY
T1 sequence (P02554 whole entry partner): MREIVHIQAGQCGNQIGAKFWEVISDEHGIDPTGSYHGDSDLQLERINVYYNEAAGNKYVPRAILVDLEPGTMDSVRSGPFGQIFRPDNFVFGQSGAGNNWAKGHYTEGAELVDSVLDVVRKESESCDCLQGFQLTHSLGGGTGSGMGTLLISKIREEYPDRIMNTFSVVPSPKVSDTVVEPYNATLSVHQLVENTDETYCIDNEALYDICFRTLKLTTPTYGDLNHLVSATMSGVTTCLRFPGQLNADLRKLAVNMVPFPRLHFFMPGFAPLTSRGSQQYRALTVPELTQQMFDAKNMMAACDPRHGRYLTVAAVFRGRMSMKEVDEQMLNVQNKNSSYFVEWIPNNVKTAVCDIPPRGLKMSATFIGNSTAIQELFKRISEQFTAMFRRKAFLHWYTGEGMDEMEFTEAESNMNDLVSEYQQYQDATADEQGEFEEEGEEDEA

IC50, ≤ 0.1 µM:
COc1ccc(NC(=O)c2ccc(S(=O)(=O)NCCO)cc2N2CCC3(CC2)CC3)nc1N1CCC(C)(F)C1 (stereo not drawn) [Compound 280]
COc1ccc(NC(=O)c2ccc(S(=O)(=O)NCCO)cc2N2CCC3(CC2)CC3)nc1N1CCC(F)CC1 [Compound 281]
COc1ccc(NC(=O)c2ccc(S(=O)(=O)NCCO)cc2N2CCC3(CC2)CC3)nc1N1CC2CC2C1 (stereo not drawn) [Compound 282]
COc1ccc(NC(=O)c2ccc(S(=O)(=O)NCCO)cc2N2CCC3(CC2)CC3)nc1NC(C)(C)CO [Compound 283]
COc1ccc(NC(=O)c2ccc(S(=O)(=O)NCCO)cc2N2CCC3(CC2)CC3)nc1N1CCOCC1 [Compound 284]
COc1ccc(NC(=O)c2ccc(S(=O)(=O)N[C@@H](C)CO)cc2N2CCC3(CC2)CC3)nc1N1CCC(F)(F)CC1 [Compound 285]
COc1ccc(NC(=O)c2ccc(S(=O)(=O)N[C@H](C)CO)cc2N2CCC3(CC2)CC3)nc1N1CCC(F)(F)CC1 [Compound 286]
COc1ccc(NC(=O)c2ccc(S(=O)(=O)N[C@@H](C)CO)cc2N2CCC3(CC2)CC3)nc1N1CCO[C@H](C)C1 [Compound 287]
COc1ccc(NC(=O)c2ccc(S(=O)(=O)N[C@H](C)CO)cc2N2CCC3(CC2)CC3)nc1N1CCO[C@H](C)C1 [Compound 288]
COc1ccc(NC(=O)c2cnc(NS(=O)(=O)CCO)cc2N2CCC3(CC2)CC3)nc1N1CCO[C@H](C)C1 [Compound 290]
COc1ccc(NC(=O)c2cnc(NS(=O)(=O)CCO)cc2N2CCC3(CC2)CC3)nc1N1CCO[C@@H](C)C1 [Compound 291]
COc1ccc(NC(=O)c2cnc(NS(=O)(=O)CCO)cc2N2CCC3(CC2)CC3)nc1N1CC(F)(F)C1 [Compound 292]
COc1ccc(NC(=O)c2cnc(NS(=O)(=O)CCO)cc2N2CCC3(CC2)CC3)nc1OCCC(F)(F)F [Compound 293]
COc1ccc(NC(=O)c2cnc(NS(=O)(=O)CCO)cc2N2CCC3(CC2)CC3)nc1N1CCC2(CC2)C1 [Compound 294]
COc1ccc(NC(=O)c2cnc(NS(=O)(=O)CCO)cc2N2CCC3(CC2)CC3)nc1OC1CCC1 [Compound 295]
COc1ccc(NC(=O)c2cnc(NS(=O)(=O)CCO)cc2N2CCC3(CC2)CC3)nc1N1CCC(C)(F)C1 (stereo not drawn) [Compound 296]
COc1ccc(NC(=O)c2cnc(NS(=O)(=O)CCO)cc2N2CCC3(CC2)CC3)nc1N1CCC(F)CC1 [Compound 297]
COc1ccc(NC(=O)c2cnc(NS(=O)(=O)CCO)cc2N2CCC3(CC2)CC3)nc1N1CC2CC2C1 (stereo not drawn) [Compound 298]
COc1ccc(NC(=O)c2cnc(NS(=O)(=O)CCO)cc2N2CCC3(CC2)CC3)nc1NC(C)(C)CO [Compound 299]
COc1ccc(NC(=O)c2cnc(NS(=O)(=O)CCO)cc2N2CCC3(CC2)CC3)nc1N1CCOCC1 [Compound 300]
COc1ccc(NC(=O)c2cnc(NS(=O)(=O)[C@@H](C)CO)cc2N2CCC3(CC2)CC3)nc1N1CCC(F)(F)CC1 [Compound 301]
COc1ccc(NC(=O)c2cnc(NS(=O)(=O)[C@H](C)CO)cc2N2CCC3(CC2)CC3)nc1N1CCC(F)(F)CC1 [Compound 302]
COc1ccc(NC(=O)c2cnc(NS(=O)(=O)[C@@H](C)CO)cc2N2CCC3(CC2)CC3)nc1N1CCO[C@H](C)C1 [Compound 303]
COc1ccc(NC(=O)c2cnc(NS(=O)(=O)[C@H](C)CO)cc2N2CCC3(CC2)CC3)nc1N1CCO[C@H](C)C1 [Compound 304]
COc1ccc(NC(=O)c2cnc(S(=O)(=O)NCCO)cc2N2CCC3(CC2)CC3)nc1N1CCO[C@H](C)C1 [Compound 306]
COc1ccc(NC(=O)c2cnc(S(=O)(=O)NCCO)cc2N2CCC3(CC2)CC3)nc1N1CCO[C@@H](C)C1 [Compound 307]
COc1ccc(NC(=O)c2cnc(S(=O)(=O)NCCO)cc2N2CCC3(CC2)CC3)nc1N1CC(F)(F)C1 [Compound 308]
COc1ccc(NC(=O)c2cnc(S(=O)(=O)NCCO)cc2N2CCC3(CC2)CC3)nc1OCCC(F)(F)F [Compound 309]
COc1ccc(NC(=O)c2cnc(S(=O)(=O)NCCO)cc2N2CCC3(CC2)CC3)nc1N1CCC2(CC2)C1 [Compound 310]
COc1ccc(NC(=O)c2cnc(S(=O)(=O)NCCO)cc2N2CCC3(CC2)CC3)nc1OC1CCC1 [Compound 311]
COc1ccc(NC(=O)c2cnc(S(=O)(=O)NCCO)cc2N2CCC3(CC2)CC3)nc1N1CCC(C)(F)C1 (stereo not drawn) [Compound 312]
COc1ccc(NC(=O)c2cnc(S(=O)(=O)NCCO)cc2N2CCC3(CC2)CC3)nc1N1CCC(F)CC1 [Compound 313]
COc1ccc(NC(=O)c2cnc(S(=O)(=O)NCCO)cc2N2CCC3(CC2)CC3)nc1N1CC2CC2C1 (stereo not drawn) [Compound 314]
COc1ccc(NC(=O)c2cnc(S(=O)(=O)NCCO)cc2N2CCC3(CC2)CC3)nc1NC(C)(C)CO [Compound 315]
COc1ccc(NC(=O)c2cnc(S(=O)(=O)NCCO)cc2N2CCC3(CC2)CC3)nc1N1CCOCC1 [Compound 316]
COc1ccc(NC(=O)c2cnc(S(=O)(=O)N[C@@H](C)CO)cc2N2CCC3(CC2)CC3)nc1N1CCC(F)(F)CC1 [Compound 317]
COc1ccc(NC(=O)c2cnc(S(=O)(=O)N[C@H](C)CO)cc2N2CCC3(CC2)CC3)nc1N1CCC(F)(F)CC1 [Compound 318]
COc1ccc(NC(=O)c2cnc(S(=O)(=O)N[C@@H](C)CO)cc2N2CCC3(CC2)CC3)nc1N1CCO[C@H](C)C1 [Compound 319]
COc1ccc(NC(=O)c2cnc(S(=O)(=O)N[C@H](C)CO)cc2N2CCC3(CC2)CC3)nc1N1CCO[C@H](C)C1 [Compound 320]
COc1ccc(C(=O)Nc2ccc(NS(=O)(=O)CCO)cc2N2CCC3(CC2)CC3)nc1N1CCO[C@H](C)C1 [Compound 322]
COc1ccc(C(=O)Nc2ccc(NS(=O)(=O)CCO)cc2N2CCC3(CC2)CC3)nc1N1CCO[C@@H](C)C1 [Compound 323]
COc1ccc(C(=O)Nc2ccc(NS(=O)(=O)CCO)cc2N2CCC3(CC2)CC3)nc1N1CC(F)(F)C1 [Compound 324]
COc1ccc(C(=O)Nc2ccc(NS(=O)(=O)CCO)cc2N2CCC3(CC2)CC3)nc1OCCC(F)(F)F [Compound 325]
COc1ccc(C(=O)Nc2ccc(NS(=O)(=O)CCO)cc2N2CCC3(CC2)CC3)nc1N1CCC2(CC2)C1 [Compound 326]
COc1ccc(C(=O)Nc2ccc(NS(=O)(=O)CCO)cc2N2CCC3(CC2)CC3)nc1OC1CCC1 [Compound 327]
COc1ccc(C(=O)Nc2ccc(NS(=O)(=O)CCO)cc2N2CCC3(CC2)CC3)nc1N1CCC(C)(F)C1 (stereo not drawn) [Compound 328]
COc1ccc(C(=O)Nc2ccc(NS(=O)(=O)CCO)cc2N2CCC3(CC2)CC3)nc1N1CCC(F)CC1 [Compound 329]
COc1ccc(C(=O)Nc2ccc(NS(=O)(=O)CCO)cc2N2CCC3(CC2)CC3)nc1N1CC2CC2C1 (stereo not drawn) [Compound 330]
COc1ccc(C(=O)Nc2ccc(NS(=O)(=O)CCO)cc2N2CCC3(CC2)CC3)nc1NC(C)(C)CO [Compound 331]
COc1ccc(C(=O)Nc2ccc(NS(=O)(=O)CCO)cc2N2CCC3(CC2)CC3)nc1N1CCOCC1 [Compound 332]
COc1ccc(C(=O)Nc2ccc(NS(=O)(=O)[C@@H](C)CO)cc2N2CCC3(CC2)CC3)nc1N1CCC(F)(F)CC1 [Compound 333]
COc1ccc(C(=O)Nc2ccc(NS(=O)(=O)[C@H](C)CO)cc2N2CCC3(CC2)CC3)nc1N1CCC(F)(F)CC1 [Compound 334]
COc1ccc(C(=O)Nc2ccc(NS(=O)(=O)[C@@H](C)CO)cc2N2CCC3(CC2)CC3)nc1N1CCO[C@H](C)C1 [Compound 335]
COc1ccc(C(=O)Nc2ccc(NS(=O)(=O)[C@H](C)CO)cc2N2CCC3(CC2)CC3)nc1N1CCO[C@H](C)C1 [Compound 336]
COc1ccc(C(=O)Nc2ccc(S(=O)(=O)NCCO)cc2N2CCC3(CC2)CC3)nc1N1CCO[C@H](C)C1 [Compound 338]
COc1ccc(C(=O)Nc2ccc(S(=O)(=O)NCCO)cc2N2CCC3(CC2)CC3)nc1N1CCO[C@@H](C)C1 [Compound 339]
COc1ccc(C(=O)Nc2ccc(S(=O)(=O)NCCO)cc2N2CCC3(CC2)CC3)nc1N1CC(F)(F)C1 [Compound 340]
COc1ccc(C(=O)Nc2ccc(S(=O)(=O)NCCO)cc2N2CCC3(CC2)CC3)nc1OCCC(F)(F)F [Compound 341]
COc1ccc(C(=O)Nc2ccc(S(=O)(=O)NCCO)cc2N2CCC3(CC2)CC3)nc1N1CCC2(CC2)C1 [Compound 342]
COc1ccc(C(=O)Nc2ccc(S(=O)(=O)NCCO)cc2N2CCC3(CC2)CC3)nc1OC1CCC1 [Compound 343]
COc1ccc(C(=O)Nc2ccc(S(=O)(=O)NCCO)cc2N2CCC3(CC2)CC3)nc1N1CCC(C)(F)C1 (stereo not drawn) [Compound 344]
COc1ccc(C(=O)Nc2ccc(S(=O)(=O)NCCO)cc2N2CCC3(CC2)CC3)nc1N1CCC(F)CC1 [Compound 345]
COc1ccc(C(=O)Nc2ccc(S(=O)(=O)NCCO)cc2N2CCC3(CC2)CC3)nc1N1CC2CC2C1 (stereo not drawn) [Compound 346]
COc1ccc(C(=O)Nc2ccc(S(=O)(=O)NCCO)cc2N2CCC3(CC2)CC3)nc1NC(C)(C)CO [Compound 347]
COc1ccc(C(=O)Nc2ccc(S(=O)(=O)NCCO)cc2N2CCC3(CC2)CC3)nc1N1CCOCC1 [Compound 348]
COc1ccc(C(=O)Nc2ccc(S(=O)(=O)N[C@@H](C)CO)cc2N2CCC3(CC2)CC3)nc1N1CCC(F)(F)CC1 [Compound 349]
